# Test results reported in patent publication US10428081B2, “EGFR inhibitor, preparation method and use thereof” (Shanghai Hansoh Biomedical Co., Ltd., priority 2014, dated 2019).
# Read-outs that look alike come from different tables or passages of the source.
# Tests used:
# [1] = target: exon 20 T790M mutant-type EGFR enzyme (Homo sapiens, UniProt P00533, T790M); test: Enzymologic experiment of T790M mutant-type EGFR (TR-FRET); type: biochemical; conditions: for IC50: T790M EGFR enzyme, TR-FRET, ATP 1 to 10 uM; for Selectivity of wild-type/mutant-type: ratio WT IC50 / T790M IC50, enzyme
# exon 20 T790M mutant-type EGFR enzyme, sequence (P00533 25-1210 T790M): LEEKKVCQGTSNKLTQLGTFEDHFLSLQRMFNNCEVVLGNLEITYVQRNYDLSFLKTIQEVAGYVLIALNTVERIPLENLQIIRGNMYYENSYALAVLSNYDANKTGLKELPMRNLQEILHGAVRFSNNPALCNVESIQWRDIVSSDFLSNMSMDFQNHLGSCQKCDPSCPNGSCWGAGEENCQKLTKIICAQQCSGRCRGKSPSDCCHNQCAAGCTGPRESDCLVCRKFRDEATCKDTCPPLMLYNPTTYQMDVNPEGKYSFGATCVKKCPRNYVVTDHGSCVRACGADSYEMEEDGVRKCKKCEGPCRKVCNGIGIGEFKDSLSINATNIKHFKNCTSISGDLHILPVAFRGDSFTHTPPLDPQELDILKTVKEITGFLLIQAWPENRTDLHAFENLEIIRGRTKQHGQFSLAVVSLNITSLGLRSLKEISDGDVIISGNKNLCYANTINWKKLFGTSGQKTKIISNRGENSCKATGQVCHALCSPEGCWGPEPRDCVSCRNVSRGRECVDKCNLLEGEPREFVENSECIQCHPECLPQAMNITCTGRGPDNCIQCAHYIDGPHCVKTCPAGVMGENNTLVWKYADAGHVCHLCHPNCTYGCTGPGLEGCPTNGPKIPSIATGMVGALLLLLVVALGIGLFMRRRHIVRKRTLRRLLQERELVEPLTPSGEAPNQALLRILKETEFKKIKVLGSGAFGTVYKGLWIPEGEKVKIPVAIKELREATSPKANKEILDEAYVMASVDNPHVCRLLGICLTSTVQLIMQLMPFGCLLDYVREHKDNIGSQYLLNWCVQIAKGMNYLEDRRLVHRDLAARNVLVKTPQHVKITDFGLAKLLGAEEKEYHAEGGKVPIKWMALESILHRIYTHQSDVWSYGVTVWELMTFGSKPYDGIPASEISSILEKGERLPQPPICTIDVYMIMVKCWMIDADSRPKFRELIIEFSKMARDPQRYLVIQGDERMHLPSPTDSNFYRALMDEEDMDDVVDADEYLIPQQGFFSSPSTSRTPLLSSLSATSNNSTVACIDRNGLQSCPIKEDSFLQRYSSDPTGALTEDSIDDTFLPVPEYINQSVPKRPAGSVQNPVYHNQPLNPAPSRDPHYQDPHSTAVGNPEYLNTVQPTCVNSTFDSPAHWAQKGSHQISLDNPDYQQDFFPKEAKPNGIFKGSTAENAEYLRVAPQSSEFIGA
# Outline: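 Compound dilutions preincubated 10 min at room temperature; reaction ended with EDTA, then labeled antibody added for 1 h at room temperature. Inhibition rates derived from TR-FRET fluorescence signal, and IC50 obtained by curve fitting across concentrations.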
# A431 cells = test: Inhibition of A431 cell proliferation (CellTiter-Glo); type: cell-based; conditions: read-out: EGFR IC50 (nM) A431
# Outline: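 Viability read as CellTiter-Glo luminescence; IC50 by curve fitting of inhibition rates.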
# wild-type EGFR enzyme = wild-type EGFR enzyme (Homo sapiens, UniProt P00533); test: Enzymologic experiment of wild-type (WT) EGFR (TR-FRET); type: biochemical; conditions: ATP 0.1 to 5 uM
# wild-type EGFR enzyme, sequence (P00533 25-1210): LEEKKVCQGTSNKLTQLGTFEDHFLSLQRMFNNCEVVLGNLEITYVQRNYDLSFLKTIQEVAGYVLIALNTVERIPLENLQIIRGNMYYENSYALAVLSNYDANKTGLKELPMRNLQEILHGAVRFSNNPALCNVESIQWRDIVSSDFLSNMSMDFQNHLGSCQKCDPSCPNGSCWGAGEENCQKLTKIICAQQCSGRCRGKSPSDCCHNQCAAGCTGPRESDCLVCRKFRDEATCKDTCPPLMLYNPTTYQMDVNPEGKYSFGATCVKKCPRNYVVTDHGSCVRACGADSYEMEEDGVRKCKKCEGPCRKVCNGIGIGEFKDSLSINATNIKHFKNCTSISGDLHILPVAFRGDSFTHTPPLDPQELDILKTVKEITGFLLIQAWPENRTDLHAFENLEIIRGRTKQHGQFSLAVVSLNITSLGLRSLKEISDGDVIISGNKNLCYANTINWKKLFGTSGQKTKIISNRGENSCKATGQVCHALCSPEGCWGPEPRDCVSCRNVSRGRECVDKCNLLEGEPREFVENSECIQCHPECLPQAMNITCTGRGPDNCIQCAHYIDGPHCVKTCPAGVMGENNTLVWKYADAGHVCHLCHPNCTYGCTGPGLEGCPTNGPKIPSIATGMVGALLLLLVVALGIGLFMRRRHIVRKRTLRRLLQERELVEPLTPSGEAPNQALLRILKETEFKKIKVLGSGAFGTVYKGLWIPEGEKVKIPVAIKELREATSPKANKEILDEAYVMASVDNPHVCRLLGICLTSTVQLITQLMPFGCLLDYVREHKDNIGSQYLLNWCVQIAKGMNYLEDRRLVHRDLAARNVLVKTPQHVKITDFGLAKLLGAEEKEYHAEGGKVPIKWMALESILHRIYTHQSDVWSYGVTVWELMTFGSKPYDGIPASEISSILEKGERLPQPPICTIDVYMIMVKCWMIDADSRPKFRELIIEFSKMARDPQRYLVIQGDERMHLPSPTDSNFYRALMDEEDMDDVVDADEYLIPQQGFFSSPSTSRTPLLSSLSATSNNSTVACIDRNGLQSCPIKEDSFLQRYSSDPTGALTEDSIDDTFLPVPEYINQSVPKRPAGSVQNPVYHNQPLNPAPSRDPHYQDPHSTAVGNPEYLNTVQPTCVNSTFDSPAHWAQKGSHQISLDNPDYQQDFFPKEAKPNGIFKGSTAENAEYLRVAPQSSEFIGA
# Outline: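 Wild-type EGFR (0.1 to 1 nM final) preincubated with serially diluted compound for 10 minutes at room temperature; reaction stopped with EDTA, then labelled antibody added for 1 hour at room temperature. TR-FRET signal converted to inhibition rates; IC50 from curve fitting across concentrations.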
# NCI-H1975 cells = test: Inhibition of NCI-H1975 cell proliferation (CellTiter-Glo); type: cell-based; conditions: for IC50: NCI-H1975 cell proliferation, 72 hours, CellTiter-Glo, read-out: EGFR IC50 (nM) H1975; for Selectivity of wild-type/mutant-type: ratio A431 IC50 / H1975 IC50, cells
compound,measurement,setting,value
"C=CC(=O)Nc1cc(Nc2ncc(C(F)(F)F)c(-n3nc(C)c4cc(C#N)ccc43)n2)c(OC)cc1N(C)CCN(C)C [Example 106, N-(5-((4-(5-cyano-3-methyl-1H-indazol-1-yl)-5-(trifluoromethyl)pyrimidin-2-yl)amino)-2-((2-(dimethylamino)ethyl)(methyl)amino)-4-methoxyphenyl)acrylamide]",IC50,[1],0.88 nM
same,Selectivity of wild-type/mutant-type,[1],216.14
same,IC50,"A431 cells; Homo sapiens, A-431, 72 h",354 nM
same,IC50,wild-type EGFR enzyme,190 nM
same,IC50,"NCI-H1975 cells; Homo sapiens, NCI-H1975, 72 h",14.3 nM
same,Selectivity of wild-type/mutant-type,NCI-H1975 cells,24.70
C=CC(=O)Nc1cc(Nc2ncc(C(F)(F)F)c(-n3nc(C)c4cc(OC)ccc43)n2)c(OC)cc1N(C)CCN(C)C [Example 107],IC50,[1],0.76 nM
same,Selectivity of wild-type/mutant-type,[1],36.84
same,IC50,"A431 cells; Homo sapiens, A-431, 72 h",98.3 nM
same,IC50,wild-type EGFR enzyme,28 nM
same,IC50,"NCI-H1975 cells; Homo sapiens, NCI-H1975, 72 h",2.76 nM
same,Selectivity of wild-type/mutant-type,NCI-H1975 cells,35.61
"C=CC(=O)Nc1cc(Nc2nccc(-n3nc(C4CC4)c4ccccc43)n2)c(OC)cc1N(C)CCN(C)C [Example 111, N-(5-((4-(3-cyclopropyl-1H-indazol-1-yl)pyrimidin-2-yl)amino)-2-((2-(dimethylamino)ethyl)(methyl)amino)-4-methoxyphenyl)acrylamide]",IC50,[1],0.42 nM
same,Selectivity of wild-type/mutant-type,[1],6.60
same,IC50,A431 cells; 72 hours,314 nM
same,IC50,wild-type EGFR enzyme,2.77 nM
same,IC50,NCI-H1975 cells,5.65 nM
same,Selectivity of wild-type/mutant-type,NCI-H1975 cells,55.52
"C=CC(=O)Nc1cc(Nc2nccc(-n3ncc4ccc(C#N)cc43)n2)c(OC)cc1N(C)CCN(C)C [Example 112, N-(5-((4-(6-cyano-1H-indazol-1-yl)pyrimidin-2-yl)amino)-2-((2-(dimethylamino)ethyl)(methyl)amino)-4-methoxyphenyl)acrylamide]",IC50,[1],3.45 nM
same,Selectivity of wild-type/mutant-type,[1],13.61
same,IC50,"A431 cells; Homo sapiens, A-431, 72 h",257 nM
same,IC50,wild-type EGFR enzyme,46.9 nM
same,IC50,"NCI-H1975 cells; Homo sapiens, NCI-H1975, 72 h",15.6 nM
same,Selectivity of wild-type/mutant-type,NCI-H1975 cells,16.51
"C=CC(=O)Nc1cc(Nc2nccc(-n3nc(C4CC4)c4cc(OC)ccc43)n2)c(OC)cc1N(C)CCN(C)C [Example 113, N-(5-((4-(3-cyclopropyl-5-methoxy-1H-indazol-1-yl)pyrimidin-2-yl)amino)-2-((2-(dimethylamino)ethyl)(methyl)amino)-4-methoxyphenyl)acrylamide]",IC50,[1],0.36 nM
same,Selectivity of wild-type/mutant-type,[1],4.50
same,IC50,"A431 cells; Homo sapiens, A-431, 72 h",233 nM
same,IC50,wild-type EGFR enzyme,1.62 nM
same,IC50,"NCI-H1975 cells; Homo sapiens, NCI-H1975, 72 h",3.17 nM
same,Selectivity of wild-type/mutant-type,NCI-H1975 cells,73.42
"C=CC(=O)Nc1cc(Nc2ncc(C(F)(F)F)c(-n3nc(C4CC4)c4cc(OC)ccc43)n2)c(OC)cc1N(C)CCN(C)C [Example 114, N-(5-((4-(3-cyclopropyl-5-methoxy-1H-indazol-1-yl)-5-(trifluoromethyl)pyrimidin-2-yl)amino)-2-((2-(dimethylamino)ethyl)(methyl)amino)-4-methoxyphenyl)acrylamide]",IC50,[1],2.28 nM
same,Selectivity of wild-type/mutant-type,[1],18.40
same,IC50,"A431 cells; Homo sapiens, A-431, 72 h",122 nM
same,IC50,wild-type EGFR enzyme,42 nM
same,IC50,"NCI-H1975 cells; Homo sapiens, NCI-H1975, 72 h",11.6 nM
same,Selectivity of wild-type/mutant-type,NCI-H1975 cells,10.47
"C=CC(=O)Nc1cc(Nc2ncc(Cl)c(-n3nc(C4CC4)c4cc(OC)ccc43)n2)c(OC)cc1N(C)CCN(C)C [Example 115, N-(5-((5-chloro-4-(3-cyclopropyl-5-methoxy-1H-indazol-1-yl)pyrimidin-2-yl)amino)-2-((2-(dimethylamino)ethyl)(methyl)amino)-4-methoxyphenyl)acrylamide]",IC50,[1],0.37 nM
same,Selectivity of wild-type/mutant-type,[1],10.65
same,IC50,"A431 cells; Homo sapiens, A-431, 72 h",101 nM
same,IC50,wild-type EGFR enzyme,3.94 nM
same,IC50,"NCI-H1975 cells; Homo sapiens, NCI-H1975, 72 h",4.98 nM
same,Selectivity of wild-type/mutant-type,NCI-H1975 cells,20.34
"C=CC(=O)Nc1cc(Nc2ncc(C(F)(F)F)c(-n3nc(CC)c4cc(C#N)ccc43)n2)c(OC)cc1N(C)CCN(C)C [Example 117, N-(5-((4-(5-cyano-3-ethyl-1H-indazol-1-yl)-5-(trifluoromethyl)pyrimidin-2-yl)amino)-2-((2-(dimethylamino)ethyl)(methyl)amino)-4-methoxyphenyl)acrylamide]",IC50,[1],0.61 nM
same,Selectivity of wild-type/mutant-type,[1],71.05
same,IC50,"A431 cells; Homo sapiens, A-431, 72 h",199 nM
same,IC50,wild-type EGFR enzyme,43.3 nM
same,IC50,"NCI-H1975 cells; Homo sapiens, NCI-H1975, 72 h",29.9 nM
same,Selectivity of wild-type/mutant-type,NCI-H1975 cells,6.65
"C=CC(=O)Nc1cc(Nc2ncc(Cl)c(-n3nc(CC)c4cc(C#N)ccc43)n2)c(OC)cc1N(C)CCN(C)C [Example 118, N-(5-((5-chloro-4-(5-cyano-3-ethyl-1H-indazol-1-yl)pyrimidin-2-yl)amino)-2-((2-(dimethylamino)ethyl)(methyl)amino)-4-methoxyphenyl)acrylamide]",IC50,[1],0.71 nM
same,Selectivity of wild-type/mutant-type,[1],39.30
same,IC50,"A431 cells; Homo sapiens, A-431, 72 h",374 nM
same,IC50,wild-type EGFR enzyme,27.9 nM
same,IC50,"NCI-H1975 cells; Homo sapiens, NCI-H1975, 72 h",93.7 nM
same,Selectivity of wild-type/mutant-type,NCI-H1975 cells,3.99
"C=CC(=O)Nc1cc(Nc2nccc(-n3cnc4ccccc43)n2)c(OC)cc1N(C)CCN(C)C [Example 120, N-(5-((4-(1H-benzo[d]imidazol-1-yl)pyrimidin-2-yl)amino)-2-((2-(dimethylamino)ethyl)(methyl)amino)-4-methoxyphenyl)acrylamide]",IC50,[1],1.05 nM
same,Selectivity of wild-type/mutant-type,[1],3.49
same,IC50,"A431 cells; Homo sapiens, A-431, 72 h",115 nM
same,IC50,wild-type EGFR enzyme,3.66 nM
same,IC50,"NCI-H1975 cells; Homo sapiens, NCI-H1975, 72 h",4.91 nM
same,Selectivity of wild-type/mutant-type,NCI-H1975 cells,23.44
"C=CC(=O)Nc1cc(Nc2nccc(-n3ncc4cc(OCCOC)ccc43)n2)c(OC)cc1N(C)CCN(C)C [Example 121, N-(2-((2-(dimethylamino)ethyl)(methyl)amino)-4-methoxy-5-((4-(5-(2-methoxyethoxy)-1H-indazol-1-yl)pyrimidin-2-yl)amino)phenyl)acrylamide]",IC50,[1],0.4 nM
same,Selectivity of wild-type/mutant-type,[1],8.75
same,IC50,"A431 cells; Homo sapiens, A-431, 72 h",348 nM
same,IC50,wild-type EGFR enzyme,3.5 nM
same,IC50,"NCI-H1975 cells; Homo sapiens, NCI-H1975, 72 h",2.09 nM
same,Selectivity of wild-type/mutant-type,NCI-H1975 cells,166.41
"COc1cc(N(C)CCN(C)C)c(NC(=O)/C=C/CN(C)C)cc1Nc1nccc(-c2cn(C3CC3)c3ccccc23)n1 [Example 122, (E)-N-(5-((4-(1-cyclopropyl-1H-indol-3-yl)pyrimidin-2-yl)amino)-2-((2-(dimethylamino)ethyl)(methyl)amino)-4-methoxyphenyl)-4-(dimethylamino)but-2-enamide]",IC50,[1],0.49 nM
same,Selectivity of wild-type/mutant-type,[1],17.14
same,IC50,"A431 cells; Homo sapiens, A-431, 72 h",890 nM
same,IC50,wild-type EGFR enzyme,8.4 nM
same,IC50,"NCI-H1975 cells; Homo sapiens, NCI-H1975, 72 h",114 nM
same,Selectivity of wild-type/mutant-type,NCI-H1975 cells,7.84
"C=CC(=O)Nc1cc(Nc2nccc(-c3cn(C4CC4)c4ccccc34)n2)c(OC)cc1N(C)CCN1CCCC1 [Example 123, N-(5-((4-(1-cyclopropyl-1H-indol-3-yl)pyrimidin-2-yl)amino)-4-methoxy-2-(methyl(2-(pyrrolidin-1-yl)ethyl)amino)phenyl)acrylamide]",IC50,[1],1.28 nM
same,Selectivity of wild-type/mutant-type,[1],21.23
same,IC50,"A431 cells; Homo sapiens, A-431, 72 h",527 nM
same,IC50,wild-type EGFR enzyme,27.2 nM
same,IC50,"NCI-H1975 cells; Homo sapiens, NCI-H1975, 72 h",14.9 nM
same,Selectivity of wild-type/mutant-type,NCI-H1975 cells,35.37
"C=CC(=O)Nc1cc(Nc2nccc(-c3cn4c5c(cccc35)CCC4)n2)c(OC)cc1N(C)CCN(C)C [Example 125, N-(5-((4-(5,6-dihydro-4H-pyrrolo[3,2,1-ij]quinolin-1-yl)pyrimidin-2-yl)amino)-2-((2-(dimethylamino)ethyl)(methyl)amino)-4-methoxyphenyl)acrylamide]",IC50,[1],1.42 nM
same,Selectivity of wild-type/mutant-type,[1],9.15
same,IC50,"A431 cells; Homo sapiens, A-431, 72 h",385 nM
same,IC50,wild-type EGFR enzyme,13 nM
same,IC50,"NCI-H1975 cells; Homo sapiens, NCI-H1975, 72 h",9.58 nM
same,Selectivity of wild-type/mutant-type,NCI-H1975 cells,40.18
"C=CC(=O)Nc1cc(Nc2nccc(-c3cn(C)c4cc(OC)ccc34)n2)c(OC)cc1N(C)CCNC [Example 127, N-(4-methoxy-5-((4-(6-methoxy-1-methyl-1H-indol-3-yl)pyrimidin-2-yl)amino)-2-(methyl(2-(methylamino)ethyl)amino)phenyl)acrylamide]",IC50,[1],0.44 nM
same,Selectivity of wild-type/mutant-type,[1],5.23
same,IC50,"A431 cells; Homo sapiens, A-431, 72 h",88.2 nM
same,IC50,wild-type EGFR enzyme,2.3 nM
same,IC50,"NCI-H1975 cells; Homo sapiens, NCI-H1975, 72 h",2.98 nM
same,Selectivity of wild-type/mutant-type,NCI-H1975 cells,29.58
"C#CCn1cc(-c2ccnc(Nc3cc(NC(=O)C=C)c(N(C)CCNC)cc3OC)n2)c2ccccc21 [Example 129, N-(4-methoxy-2-(methyl(2-(methylamino)ethyl)amino)-5-((4-(1-(prop-2-yn-1-yl)-1H-indol-3-yl)pyrimidin-2-yl)amino)phenyl)acrylamide]",IC50,[1],1.01 nM
same,Selectivity of wild-type/mutant-type,[1],13.58
same,IC50,"A431 cells; Homo sapiens, A-431, 72 h",690 nM
same,IC50,wild-type EGFR enzyme,13.7 nM
same,IC50,"NCI-H1975 cells; Homo sapiens, NCI-H1975, 72 h",6.22 nM
same,Selectivity of wild-type/mutant-type,NCI-H1975 cells,110.93
"C=CC(=O)Nc1cc(Nc2nccc(-n3ncc4cc(OCCOC)ccc43)n2)c(OC)cc1N(C)CCN1CCCC1 [Example 134, N-(4-methoxy-5-((4-(5-(2-methoxyethoxy)-1H-indazol-1-yl)pyrimidin-2-yl)amino)-2-(methyl(2-(pyrrolidin-1-yl)ethyl)amino)phenyl)acrylamide]",IC50,[1],1.85 nM
same,Selectivity of wild-type/mutant-type,[1],10.75
same,IC50,"A431 cells; Homo sapiens, A-431, 72 h",325 nM
same,IC50,wild-type EGFR enzyme,19.9 nM
same,IC50,"NCI-H1975 cells; Homo sapiens, NCI-H1975, 72 h",12.3 nM
same,Selectivity of wild-type/mutant-type,NCI-H1975 cells,26.45
"C=CC(=O)Nc1cc(Nc2nccc(-n3ncc4c(OC)cccc43)n2)c(OC)cc1N(C)CCN1CCCC1 [Example 135, N-(4-methoxy-5-((4-(4-methoxy-1H-indazol-1-yl)pyrimidin-2-yl)amino)-2-(methyl(2-(pyrrolidin-1-yl)ethyl)amino)phenyl)acrylamide]",IC50,[1],0.46 nM
same,Selectivity of wild-type/mutant-type,[1],10.04
same,IC50,"A431 cells; Homo sapiens, A-431, 72 h",444 nM
same,IC50,wild-type EGFR enzyme,4.62 nM
same,IC50,"NCI-H1975 cells; Homo sapiens, NCI-H1975, 72 h",7.5 nM
same,Selectivity of wild-type/mutant-type,NCI-H1975 cells,59.19
